{
  "source": "patent US10633383B2",
  "about": "“Compounds for the treatment, alleviation or prevention of disorders associated with Tau aggregates” (AC Immune SA, priority 2018, dated 2020)",
  "key": {"[1]": {"system": "rTg4510 mice", "assay": "Total human Tau in CSF of rTg4510 mice (AlphaLISA)", "assay_type": "in vivo, mouse", "settings": "30 mg/kg bi-daily by gavage for 1 month, vs vehicle treated rTg4510 mice (FIG. 1)", "excerpt": "(§1) In Vivo Efficacy of the Compounds of the Present Invention In Vivo Study Design for the Testing of Example 12 and Example 45\n(§2) Double transgenic rTg4510 mice express the full-length human Tau carrying the P301L mutation (Tau4R0N-P301L) under the control of the tet-inducible CaMKII promoter (Ramsden et al., J. Neurosci., 2005⋅25(46):10637-10647). Single transgenic mice expressing only the tetracycline-controlled transactivator (tTA) were used as genotype controls. The study comprised 4 treatment groups (n=15 female for tTa group and n=11 female mice/group for the treatment) with the following group distribution (see Table 9). […]\nMice were deeply anesthetized by standard injectable anesthesia and transcardially perfused with cold PBS. […] Total human Tau in CSF Tau was quantified using the following antibody pairs: HT7-Acceptor beads+biotin (BT)-Tau13-donor beads. […]\nAfter incubation of this mixture at room temperature for 1 hour, 25 μL of Streptavidin Donor beads (Perkin Elmer) at 25 μg/mL were added in the dark. Plates were analyzed after 30 minute incubation using the EnSpire Alpha instrument and EnSpire Workstation version 3.00. Data were analyzed by 1-way ANOVA followed by post-hoc comparisons and shown statistics refers to differences compared to vehicle treated rTg4510 mice."}, "[2]": {"system": "rTg4510 mice", "assay": "Histology for neuroinflammation markers (Iba1, CD68) in rTg4510 mice", "assay_type": "in vivo, mouse", "excerpt": "as §1\nas §2, with “9). Compounds or vehicle control were administered once daily or bi-daily by gavage for 1 month starting at the age of 5 months. All mice received 200 ppm doxycycline in chow for 3 weeks plus a loading dose in drinking water for the first two days at 1.5 mg/mL in 4% sucrose.” for “9).”\nAfter perfusion, brains were then removed and hemi-sagitally hemisected. […] A systematic random set of sections from seven sagittal levels per animal was used to quantify the Iba1 and CD68 immunoreactivity while 1 section/animal from the medio-lateral level 4 were used to assess Tau misfolding (MC1 monoclonal antibody). […] Sections were imaged using a digital slide scanner (Panoramic 250 Flash, 3D Histech Ltd.) and quantified using the image visualization software Visiopharm. […]"}, "[3]": {"system": "rTg4510 mice", "assay": "Histology for misfolded Tau (MC1) in rTg4510 mice", "assay_type": "in vivo, mouse", "settings": "30 mg/kg bi-daily by gavage for 1 month, frontal cortex (FIG. 2)", "excerpt": "as §1, §2\nAfter perfusion, brains were then removed and hemi-sagitally hemisected. […] A systematic random set of sections from seven sagittal levels per animal was used to quantify the Iba1 and CD68 immunoreactivity while 1 section/animal from the medio-lateral level 4 were used to assess Tau misfolding (MC1 monoclonal antibody). […] Sections were imaged using a digital slide scanner (Panoramic 250 Flash, 3D Histech Ltd.) and quantified using the image visualization software Visiopharm.\nMC1 staining was analyzed in the frontal cortex in the upper cortical layers. […] This ROI was analyzed in Visiopharm using a predetermined threshold for MC1 staining with a pixel intensity threshold above 30 (8 bits pictures) and excluding all detected objects smaller than 20 μm^2. […]"}, "[4]": {"biological_target": "T1, Tau K18 fragment (amino acids 244 to 372 of human Tau441) aggregates (Homo sapiens, UniProt P10636)", "T1 construct": "encompassing amino acids 244 to 372 of the longest isoform (2N4R) of human Tau441; host or cells: bacteria", "T1 sequence (P10636 561-689)": "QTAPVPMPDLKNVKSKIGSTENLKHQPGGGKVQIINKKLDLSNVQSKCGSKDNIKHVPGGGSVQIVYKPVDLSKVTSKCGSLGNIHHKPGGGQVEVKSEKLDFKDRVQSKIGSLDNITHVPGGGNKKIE", "assay": "Tau K18 disaggregation assay by ThT", "assay_type": "biochemical", "settings": "2 μM K18 aggregates, 30 minutes at RT, ThT fluorescence"}},
  "data": [
    {"smiles": "Fc1ccc2[nH]c3c(c2c1)CN(c1ccc2nc(N4CCOCC4)oc2c1)CC3", "note": "[Example 12]", "values": [
      {"measurement": "Tau levels in CSF", "setting": "[1]", "value": "decreased Tau levels in CSF"},
      {"measurement": "microgliosis measured as Iba1 immunoreactive area", "setting": "[2]; 30 mg/kg bi-daily by gavage for 1 month (FIG. 3A)", "value": "decreased microgliosis"},
      {"measurement": "activated phagocytic microglial cells positive for CD68", "setting": "[2]; 30 mg/kg bi-daily by gavage for 1 month (FIG. 3B)", "value": "decreased highy activated phagocytic migroglial cells"},
      {"measurement": "MC1 positive area (misfolded Tau)", "setting": "[3]", "value": "decreased the MC1 positive area"},
      {"measurement": "EC50", "setting": "[4]", "value": "< 10", "unit": "µM"}
    ]}
  ]
}
